Tests used:
WDR5 = target: T1, WDR5 (Homo sapiens, UniProt P61964); test: Time Resolved-Fluorescence Energy Transfer (TR-FRET) competition assay, displacement of 10mer-Thr-FAM probe from His-tagged WDR5; assay type: binding; details: WDR5-His tag 2 nM, 10mer-Thr-FAM 150 nM, 60 minutes at room temperature; read-out: Ki for Exemplified Compounds for Inhibition of WDR5 by TR-FRET assay
T1 construct: WDR5-His Tag (A23, residues 24-334) is expressed and purified in our lab; made in house
Method in brief: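 Competitive TR-FRET using 2 nM His-tagged WDR5 (residues 24-334), 1 nM Tb-anti-His antibody and 150 nM 10mer-Thr-FAM probe; compounds in a 10-point, 5-fold series from 5 μM, ≤1% DMSO. Incubated 60 min at room temperature in PBS with 300 mM NaCl, 0.5 mM TCEP, 0.1% CHAPS, pH 7.2; 520/495 nm emission gave IC50, converted to Ki by the Wang equation.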

[1] = system: MV4:11 human cancer cell lines; test: Cellular viability / anti-proliferative activity, CellTiter-Glo, 5 day protocol; assay type: cell-based; details: Homo sapiens, MV4-11, 120 h, MV4:11 cells, 5 day incubation, read-out: GI50 for representative compounds on cellular proliferation of MV4:11 human cancer cell lines
Method in brief: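 MV-4-11 cells in IMDM/10% FBS, 200 cells per well, exposed to 22-point 2-fold dilutions from 30 μM top (0.3% DMSO) for 5 days. Viability by CellTiter-Glo luminescence; GI50 from sigmoidal dose-response fit, mean of at least two replicates.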

Row | Compound | Ki (WDR5) [nM] | GI50 [1] [nM]
1 | COc1cc2nc(C)nc(N3CCc4c(cc(Cn5ccnc5)cc4-c4cc(C(F)(F)F)nn4C)C3=O)c2cc1OC [Example 61, 7-((1H-Imidazol-1-yl)methyl)-2-(6,7-dimethoxy-2-methylquinazolin-4-yl)-5-(1-methyl-3-(trifluoromethyl)-1H-pyrazol-5-yl)-3,4-dihydroisoquinolin-1(2H)-one] | 0.031 | 128
2 | CCN(C)c1nc(N2CCc3c(cc(Cn4ccnc4)cc3-c3cn(C)nc3C(F)(F)F)C2=O)c2cc(OC)c(OC)cc2n1 [Example 62, 7-((1H-Imidazol-1-yl)methyl)-2-(2-(ethyl(methyl)amino)-6,7-dimethoxyquinazolin-4-yl)-5-(1-methyl-3-(trifluoromethyl)-1H-pyrazol-4-yl)-3,4-dihydroisoquinolin-1(2H)-one] | < 0.02 | 29
3 | CCc1nc(N2CCc3c(cc(Cn4ccnc4)cc3-c3cn(C)nc3C(F)(F)F)C2=O)c2cc(OC)c(OC)cc2n1 [Example 63, 7-((1H-Imidazol-1-yl)methyl)-2-(2-ethyl-6,7-dimethoxyquinazolin-4-yl)-5-(1-methyl-3-(trifluoromethyl)-1H-pyrazol-4-yl)-3,4-dihydroisoquinolin-1(2H)-one] | < 0.02 | < 20
4 | COc1cc2nc(C3CC3)nc(N3CCc4c(cc(Cn5ccnc5)cc4-c4cn(C)nc4C(F)(F)F)C3=O)c2cc1OC [Example 64, 7-((1H-Imidazol-1-yl)methyl)-2-(2-cyclopropyl-6,7-dimethoxyquinazolin-4-yl)-5-(1-methyl-3-(trifluoromethyl)-1H-pyrazol-4-yl)-3,4-dihydroisoquinolin-1(2H)-one] | < 0.02 | < 20
5 | COc1cc2nc(C)nc(N3CCc4c(cc(Cn5ccnc5)cc4-c4cn(C)nc4C)C3=O)c2cc1OC [Example 65, 7-((1H-Imidazol-1-yl)methyl)-2-(6,7-dimethoxy-2-methylquinazolin-4-yl)-5-(1,3-dimethyl-1H-pyrazol-4-yl)-3,4-dihydroisoquinolin-1(2H)-one] | 0.023 | 43
6 | COc1cc2nc(C)nc(N3CCc4c(cc(Cn5ccnc5)cc4-c4ccc(F)cc4C)C3=O)c2cc1OC [Example 66, 7-((1H-Imidazol-1-yl)methyl)-2-(6,7-dimethoxy-2-methylquinazolin-4-yl)-5-(4-fluoro-2-methylphenyl)-3,4-dihydroisoquinolin-1(2H)-one] | 0.02 | 38
7 | COc1cc2nc(C3CCOCC3)nc(N3CCc4c(cc(Cn5ccnc5)cc4-c4cn(C)nc4C(F)(F)F)C3=O)c2cc1OC [Example 67, 7-((1H-Imidazol-1-yl)methyl)-2-(6,7-dimethoxy-2-(tetrahydro-2H-pyran-4-yl)quinazolin-4-yl)-5-(1-methyl-3-(trifluoromethyl)-1H-pyrazol-4-yl)-3,4-dihydroisoquinolin-1(2H)-one] | 0.025 | < 20

— patent publication US20240262822A1, “WDR5 INHIBITORS AND MODULATORS” (Vanderbilt University, priority 2021, published 2024)
